# According to publication PMC2711511 (Bioorganic & medicinal chemistry letters, 2008):
# What was measured:
# ERα [1] = target: T1, ERα (Homo sapiens, UniProt P03372); assay: estrogen-responsive reporter gene cotransfection assay in HEC-1 cells, ERα
# T1 sequence (P03372 1-595): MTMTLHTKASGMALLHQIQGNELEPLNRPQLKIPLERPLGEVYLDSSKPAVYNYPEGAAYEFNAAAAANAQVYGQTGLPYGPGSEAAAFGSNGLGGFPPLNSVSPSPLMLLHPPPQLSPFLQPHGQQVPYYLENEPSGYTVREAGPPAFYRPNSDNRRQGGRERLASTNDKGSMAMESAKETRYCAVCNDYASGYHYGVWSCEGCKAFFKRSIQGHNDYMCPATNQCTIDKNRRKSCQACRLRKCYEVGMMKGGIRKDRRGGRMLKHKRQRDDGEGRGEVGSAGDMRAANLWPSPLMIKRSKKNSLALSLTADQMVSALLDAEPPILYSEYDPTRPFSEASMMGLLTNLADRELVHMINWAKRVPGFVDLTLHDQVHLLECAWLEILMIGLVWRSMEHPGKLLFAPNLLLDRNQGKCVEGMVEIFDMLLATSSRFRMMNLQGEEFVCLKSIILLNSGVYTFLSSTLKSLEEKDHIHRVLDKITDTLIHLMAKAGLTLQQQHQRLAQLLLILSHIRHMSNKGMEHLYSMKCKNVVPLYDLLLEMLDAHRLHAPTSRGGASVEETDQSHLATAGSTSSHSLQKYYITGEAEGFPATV
# ERα [2] = target: T1, ERα; conditions: cited from earlier work
# ERα [3] = target: T1, ERα; conditions: cited from earlier work; remark: listed apart in the source
# ERα [4] = target: T1, ERα; assay: competitive radiometric binding assay, ERα
smiles,measurement,setting,value
"Cc1c(-c2ccc(O)cc2)nn(-c2ccc(O)cc2)c1-c1ccc(OCCN2CCCCC2)cc1 [MPP, Methyl-piperidino-pyrazole]",ERα partial agonist activity,ERα [1],"residual, low ERα partial agonist activity"
"CCCc1c(-c2ccc(O)cc2)nn(-c2ccc(O)cc2)c1-c1ccc(O)cc1 [PPT, propyl-pyrazole-triol]",agonist potency on ERα versus ERβ,ERα [2],ca. 1000 fold
same,affinity on ERα versus ERβ,ERα [3],ca. 1000 fold
Cc1c(-c2ccc(O)cc2)nn(-c2ccc(O)cc2)c1-c1ccc(CCCN2CCCCC2)cc1 [compound 1],ERα partial agonist activity,ERα [1],lacks
same,ERα selectivity relative to that of the triol agonist MPT,ERα [4],about 2.3 fold
Cc1c(-c2ccc(O)cc2)nn(-c2ccc(O)cc2)c1-c1ccc(/C=C/C(=O)N2CCCCC2)cc1 [compound 2],binding (in words),ERα [4]; compared with MPP and 1,markedly lower
